Here are results for 31 molecules from patent US9255090B2, “Heterocyclyl derivatives and their use as prostaglandin D2 receptor modulators” (Actelion Pharmaceuticals Ltd., priority 2012, dated 2016).

In one assay the target is hCRTH2 receptor (Homo sapiens (Human), UniProt Q9Y5Y4). In words: hCRTH2 receptor membranes radioligand (3H-PGD2) displacement assay. The assay is classed as binding. The note with it: 3H-PGD2 radioligand displacement, HEK293-hCRTH2 membranes. The method in brief: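 Compound was first mixed with buffer, then 3H-PGD2 was added at 2.5 nM, and the reaction was started with hCRTH2 membranes from HEK293 cells at 20 μg/well. After 90 min at room temperature, mixtures were filtered and washed with ice-cold buffer, and retained radioactivity was counted.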
hCRTH2 receptor, sequence (Q9Y5Y4 whole entry): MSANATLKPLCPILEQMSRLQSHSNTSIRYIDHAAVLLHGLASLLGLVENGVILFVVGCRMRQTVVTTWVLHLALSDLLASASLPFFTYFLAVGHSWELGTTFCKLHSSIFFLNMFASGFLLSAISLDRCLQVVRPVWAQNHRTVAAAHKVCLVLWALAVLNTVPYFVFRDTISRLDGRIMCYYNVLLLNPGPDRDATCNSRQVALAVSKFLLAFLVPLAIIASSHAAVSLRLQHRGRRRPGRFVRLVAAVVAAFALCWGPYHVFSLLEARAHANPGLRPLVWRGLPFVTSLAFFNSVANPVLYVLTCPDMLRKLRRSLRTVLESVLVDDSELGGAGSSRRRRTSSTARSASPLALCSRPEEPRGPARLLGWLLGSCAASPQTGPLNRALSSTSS
(In a radioligand displacement assay an active substance lowers the binding of a labelled ligand.)

The test system of the next assay is eosinophils. Kind of assay: Eosinophil shape change assay with human plasma. The assay is classed as cell-based. The note with it: Homo sapiens, Eosinophil, human plasma (50%), PGD2 100 nM activation, antagonistic activity. In a few lines:
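Human polymorphonuclear cells stained with anti-CD49d-APC, combined with compound-preincubated human plasma (50% of final volume, 4×10^6 cells/ml) for 10 min at 37° C., then stimulated 5 min with 100 nM PGD2 and fixed. Flow cytometry scored percent eosinophils with increased forward scatter.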

Take `COc1ccc(CC(=O)O)cc1-c1ccc(F)c2c1CN(C(=O)CC1CCCc3ccccc31)CC2` (racemic) [Example 263]: the 50% inhibitory concentration (IC50) on hCRTH2 receptor was 4.9 nM; in the assay with eosinophils, 64 nM.

In the case of `CCOc1ccc(CC(=O)O)cc1-c1ccc(F)c2c1CN(C(=O)OCc1ccccn1)CC2` [Example 394, 8-(5-Carboxymethyl-2-ethoxy-phenyl)-5-fluoro-3,4-dihydro-1H-isoquinoline-2-carboxylic acid pyridin-2-ylmethyl ester], the IC50 at hCRTH2 receptor was 1.2 nM; in the assay on eosinophils, 12 nM.

For the molecule `CC(C)Oc1ccc(CC(=O)O)cc1-c1ccc(F)c2c1CN(C(=O)OCc1ccccc1)CC2` [Example 22, 8-(5-Carboxymethyl-2-isopropoxy-phenyl)-5-fluoro-3,4-dihydro-1H-isoquinoline-2-carboxylic acid benzyl ester], the IC50 at hCRTH2 receptor amounted to 4.72 nM; in the assay on eosinophils it was 38 nM.

Take `COc1ccc(CC(=O)O)cc1-c1ccc(F)c2c1CN(C(=O)CC(C)(C)c1ccc(F)cc1)CC2` [Example 363, (3-{5-Fluoro-2-[3-(4-fluoro-phenyl)-3-methyl-butyryl]-1,2,3,4-tetrahydro-isoquinolin-8-yl}-4-methoxy-phenyl)-acetic acid]: the half-maximal inhibitory concentration (IC50) was determined as 2.4 nM at hCRTH2 receptor and 20 nM in the assay with eosinophils.

In the case of `CCOc1cc(CC(=O)O)ccc1-c1ccc(F)c2c1CN(C(=O)C(C)Cc1ccccn1)CC2` (racemic) [Example 352], the results for the concentration for half-maximal inhibition (IC50) at hCRTH2 receptor and with eosinophils were 8.1 nM and 103 nM, respectively.

`CCOc1cc(CC(=O)O)ccc1-c1ccc(F)c2c1CN(C(=O)CC1OCCc3ccccc31)CC2` (racemic) [Example 229]: the IC50 at hCRTH2 receptor came out at 0.7 nM; with eosinophils it was 15 nM.

Turning to `COc1ccc(CC(=O)O)cc1-c1ccc(F)c2c1CN(C(=O)CCc1cn(C)c3ccccc13)CC2` [Example 62, (3-{5-Fluoro-2-[3-(1-methyl-1H-indol-3-yl)-propionyl]-1,2,3,4-tetrahydro-isoquinolin-8-yl}-4-methoxy-phenyl)-acetic acid], the IC50 was found to be 4.74 nM at hCRTH2 receptor and 106 nM with eosinophils.

Consider `CCOc1ccc(CC(=O)O)cc1-c1ccc(F)c2c1CN(C(=O)OCc1ccccc1)CC2` [Example 195, 8-(5-Carboxymethyl-2-ethoxy-phenyl)-5-fluoro-3,4-dihydro-1H-isoquinoline-2-carboxylic acid benzyl ester], for which the 50% inhibitory concentration (IC50) was 1.06 nM on hCRTH2 receptor and 21 nM with eosinophils.

Take `COc1ccc(CC(=O)O)cc1-c1ccc(F)c2c1CN(C(=O)CC1OCCc3ccccc31)CC2` (racemic) [Example 257]: the results for the 50% inhibitory concentration (IC50) at hCRTH2 receptor and in the assay with eosinophils were 2.2 nM and 35 nM, respectively.

Turning to `COc1ccc(CC(=O)O)cc1-c1ccc(F)c2c1CN(C(=O)[C@@H]1C[C@H]1c1ccc(F)cc1)CC2` (racemic) [Example 1, (±)-(3-{5-Fluoro-2-[trans-2-(4-fluoro-phenyl)-cyclopropanecarbonyl]-1,2,3,4-tetrahydro-isoquinolin-8-yl}-4-methoxy-phenyl)-acetic acid], the IC50 was 1.99 nM on hCRTH2 receptor and 8 nM with eosinophils.

For `COc1ccc(CC(=O)O)cc1-c1ccc(F)c2c1CN(C(=O)CCn1nc(C)c3ccccc31)CC2` [Example 125, (3-{5-Fluoro-2-[3-(3-methyl-indazol-1-yl)-propionyl]-1,2,3,4-tetrahydro-isoquinolin-8-yl}-4-methoxy-phenyl)-acetic acid], the half-maximal inhibitory concentration (IC50) on hCRTH2 receptor was found to be 16.3 nM; in the assay on eosinophils, 113 nM.

For `CCOc1ccc(CC(=O)O)cc1-c1ccc(F)c2c1CN(C(=O)OCCc1ccccc1)CC2` [Example 373, 8-(5-Carboxymethyl-2-ethoxy-phenyl)-5-fluoro-3,4-dihydro-1H-isoquinoline-2-carboxylic acid phenethyl ester], the results for the IC50 at hCRTH2 receptor and in the assay with eosinophils were 1.7 nM and 42 nM, respectively.

As to `COc1ccc(OCC(=O)O)cc1-c1ccc(F)c2c1CN(C(=O)OCc1ccccc1)CC2` [Example 177, 8-(5-Carboxymethoxy-2-methoxy-phenyl)-5-fluoro-3,4-dihydro-1H-isoquinoline-2-carboxylic acid benzyl ester], the figures for the IC50 at hCRTH2 receptor and in the assay with eosinophils were 21.3 nM and 539 nM, respectively.

For the molecule `CCOc1ccc(CC(=O)O)cc1-c1ccc(F)c2c1CN(C(=O)OCc1ccc(F)cc1F)CC2` [Example 403, 8-(5-Carboxymethyl-2-ethoxy-phenyl)-5-fluoro-3,4-dihydro-1H-isoquinoline-2-carboxylic acid 2,4-difluoro-benzyl ester], the IC50 on hCRTH2 receptor came to 1.7 nM; in the assay with eosinophils, 15 nM.

For the molecule `COc1ccc(CC(=O)O)cc1-c1ccc(F)c2c1CN(C(=O)OCc1ccc(F)cc1)CC2` [Example 139, 8-(5-Carboxymethyl-2-methoxy-phenyl)-5-fluoro-3,4-dihydro-1H-isoquinoline-2-carboxylic acid 4-fluoro-benzyl ester], the half-maximal inhibitory concentration (IC50) amounted to 2.53 nM on hCRTH2 receptor and 97 nM in the assay on eosinophils.

On to `O=C(O)COc1ccc(OC(F)(F)F)c(-c2ccc(F)c3c2CN(C(=O)OCc2ccccc2)CC3)c1` [Example 162, 8-(5-Carboxymethoxy-2-trifluoromethoxy-phenyl)-5-fluoro-3,4-dihydro-1H-isoquinoline-2-carboxylic acid benzyl ester], for which the IC50 was determined as 2.47 nM at hCRTH2 receptor and 170 nM in the assay on eosinophils.

On to `COc1cc(CC(=O)O)ccc1-c1ccc(F)c2c1CN(C(=O)CCc1cn(C)c3ccccc13)CC2` [Example 183, (4-{5-Fluoro-2-[3-(1-methyl-1H-indol-3-yl)-propionyl]-1,2,3,4-tetrahydro-isoquinolin-8-yl}-3-methoxy-phenyl)-acetic acid], for which the IC50 on hCRTH2 receptor is 0.46 nM; in the assay on eosinophils, 194 nM.

On to `CCOc1cc(CC(=O)O)ccc1-c1ccc(F)c2c1CN(C(=O)CC(C)c1ccccn1)CC2` (racemic) [Example 344], for which the IC50 at hCRTH2 receptor came out at 0.9 nM; in the assay with eosinophils, 51 nM.

Turning to `CCOc1cc(CC(=O)O)ccc1-c1ccc(F)c2c1CN(C(=O)OCc1cc(Cl)ccc1F)CC2` [Example 408, 8-(4-Carboxymethyl-2-ethoxy-phenyl)-5-fluoro-3,4-dihydro-1H-isoquinoline-2-carboxylic acid 5-chloro-2-fluoro-benzyl ester], the IC50 on hCRTH2 receptor worked out at 2 nM; with eosinophils, 8 nM.

For the molecule `CC(C)(C)Oc1ccc(CC(=O)O)cc1-c1ccc(F)c2c1CN(C(=O)OCc1ccccc1)CC2` [Example 419, 8-(2-tert-Butoxy-5-carboxymethyl-phenyl)-5-fluoro-3,4-dihydro-1H-isoquinoline-2-carboxylic acid benzyl ester], the values for the IC50 on hCRTH2 receptor and in the assay on eosinophils were 2.8 nM and 35 nM, respectively.

As to `COc1ccc(CC(=O)O)cc1-c1ccc(Cl)c2c1CN(C(=O)OCc1ccccc1)CC2` [Example 154, 8-(5-Carboxymethyl-2-methoxy-phenyl)-5-chloro-3,4-dihydro-1H-isoquinoline-2-carboxylic acid benzyl ester], the IC50 came out at 5.9 nM at hCRTH2 receptor and 307 nM in the assay on eosinophils.

Turning to `COc1ccc(CC(=O)O)cc1-c1ccc(F)c2c1CN(C(=O)CCCc1ccccc1F)CC2` [Example 45, (3-{5-Fluoro-2-[4-(2-fluoro-phenyl)-butyryl]-1,2,3,4-tetrahydro-isoquinolin-8-yl}-4-methoxy-phenyl)-acetic acid], the IC50 was determined as 2.9 nM at hCRTH2 receptor and 64 nM in the assay on eosinophils.

`O=C(O)Cc1ccc(-c2ccc(F)c3c2CN(C(=O)OCc2ccccc2)CC3)c(OCC(F)(F)F)c1` [Example 411, 8-[4-Carboxymethyl-2-(2,2,2-trifluoro-ethoxy)-phenyl]-5-fluoro-3,4-dihydro-1H-isoquinoline-2-carboxylic acid benzyl ester]: the figures for the IC50 on hCRTH2 receptor and with eosinophils were 1 nM and 13 nM, respectively.

For `COc1cc(CC(=O)O)ccc1-c1ccc(F)c2c1CN(C(=O)CCCc1ccccc1)CC2` [Example 187, {4-[5-Fluoro-2-(4-phenyl-butyryl)-1,2,3,4-tetrahydro-isoquinolin-8-yl]-3-methoxy-phenyl}-acetic acid], the half-inhibitory concentration (IC50) at hCRTH2 receptor was 0.89 nM; in the assay on eosinophils it was 91 nM.

On to `COc1ccc(CC(=O)O)cc1-c1ccc(F)c2c1CN(C(=O)CN(C)C(c1ccccc1)c1ccc(Cl)cc1)CC2` (racemic) [Example 253], for which the IC50 came out at 10.6 nM at hCRTH2 receptor and 399 nM with eosinophils.

For `CCOc1ccc(CC(=O)O)cc1-c1ccc(F)c2c1CN(C(=O)CC1CCCc3cccnc31)CC2` (racemic) [Example 350], the IC50 at hCRTH2 receptor stood at 8.2 nM; in the assay with eosinophils, 9 nM.

On to `CCOc1cc(CC(=O)O)ccc1-c1ccc(F)c2c1CN(C(=O)CC1COc3ccccc31)CC2` (racemic) [Example 235], for which the values for the half-maximal inhibitory concentration (IC50) at hCRTH2 receptor and in the assay with eosinophils were 0.3 nM and 20 nM, respectively.

Regarding `CCOc1cc(CC(=O)O)ccc1-c1ccc(F)c2c1CN(C(=O)OCc1cccc(F)c1)CC2` [Example 405, 8-(4-Carboxymethyl-2-ethoxy-phenyl)-5-fluoro-3,4-dihydro-1H-isoquinoline-2-carboxylic acid 3-fluoro-benzyl ester], the 50% inhibitory concentration (IC50) at hCRTH2 receptor was determined as 2.7 nM; in the assay with eosinophils, 20 nM.

For `CCOc1ccc(CC(=O)O)cc1-c1ccc(F)c2c1CN(C(=O)C(C)Cc1ccccn1)CC2` (racemic) [Example 351], the 50% inhibitory concentration (IC50) on hCRTH2 receptor turned out to be 3.1 nM; in the assay with eosinophils, 26 nM.

For the molecule `CCOc1cc(CC(=O)O)ccc1-c1ccc(F)c2c1CN(C(=O)CCc1cccc(C)n1)CC2` [Example 321, (3-Ethoxy-4-{5-fluoro-2-[3-(6-methyl-pyridin-2-yl)-propionyl]-1,2,3,4-tetrahydro-isoquinolin-8-yl}-phenyl)-acetic acid], the concentration for half-maximal inhibition (IC50) on hCRTH2 receptor stood at 7.3 nM; in the assay on eosinophils, 20 nM.

For `CCOc1ccc(CC(=O)O)cc1-c1ccc(F)c2c1CN(C(=O)C[C@@H](C)c1ccccc1)CC2` [Example 221, {4-Ethoxy-3-[5-fluoro-2-((R)-3-phenyl-butyryl)-1,2,3,4-tetrahydro-isoquinolin-8-yl]-phenyl}-acetic acid], the IC50 on hCRTH2 receptor came to 1.2 nM; in the assay on eosinophils, 34 nM.

A word on the IC50: it is the concentration needed to halve the response being measured.
